Measurements: the Kinase Knowledgebase extract (Sharma et al. 2016)

Target: MAPK14 (human) (UniProt Q16539)
Assay: Inhibition of MAPK14 Kinase Activity

Sequence of MAPK14 (human) (Q16539 whole entry, looked up): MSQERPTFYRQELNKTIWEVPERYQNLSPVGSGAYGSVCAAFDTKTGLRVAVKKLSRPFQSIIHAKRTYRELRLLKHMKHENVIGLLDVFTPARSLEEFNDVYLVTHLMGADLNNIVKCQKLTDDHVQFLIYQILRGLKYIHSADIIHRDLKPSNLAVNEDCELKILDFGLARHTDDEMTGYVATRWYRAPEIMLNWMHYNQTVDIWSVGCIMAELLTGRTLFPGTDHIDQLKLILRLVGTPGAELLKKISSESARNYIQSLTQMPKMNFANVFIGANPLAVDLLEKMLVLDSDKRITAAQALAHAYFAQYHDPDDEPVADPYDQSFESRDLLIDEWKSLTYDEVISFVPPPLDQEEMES

| IC50 | SMILES |
| --- | --- |
| 26 nM | COCCn1c(SC)nc(-c2ccc(F)cc2)c1-c1ccnc(NCCc2ccccc2)c1 |
| 93 nM | COCCn1c(SC)nc(-c2ccc(F)cc2)c1-c1ccnc(NC(=O)CCc2cccc(OC)c2)c1 |
| 83 nM | CCCCC(=O)Nc1cc(-c2c(-c3ccc(F)cc3)nc(SC)n2CCOC)ccn1 |
| 219 nM | COCCn1c(SC)nc(-c2ccc(F)cc2)c1-c1ccnc(NC(=O)CC2CCCCC2)c1 |
| 90 nM | COCCn1c(SC)nc(-c2ccc(F)cc2)c1-c1ccnc(NC(=O)CCc2ccc(C)cc2)c1 |
| 108 nM | COCCn1c(SC)nc(-c2ccc(F)cc2)c1-c1ccnc(NC(=O)CC2CCCC2)c1 |
| 311 nM | CCC(C)C(=O)Nc1cc(-c2c(-c3ccc(F)cc3)nc(SC)n2CCOC)ccn1 (stereo not given) |
| 84 nM | COCCn1c(SC)nc(-c2ccc(F)cc2)c1-c1ccnc(NC(=O)CCc2ccc(OC)c(OC)c2OC)c1 |
| 128 nM | COCCn1c(SC)nc(-c2ccc(F)cc2)c1-c1ccnc(NC(=O)C2CC2)c1 |
| 133 nM | COCCn1c(SC)nc(-c2ccc(F)cc2)c1-c1ccnc(NC(=O)C[C@H](C)c2ccccc2)c1 |
| 168 nM | COCCn1c(SC)nc(-c2ccc(F)cc2)c1-c1ccnc(NC(=O)[C@H]2C[C@@H]2c2ccccc2)c1 |
| 97 nM | COCCn1c(SC)nc(-c2ccc(F)cc2)c1-c1ccnc(NC(=O)CCCc2ccc(OC)cc2)c1 |
| 224 nM | COCCn1c(SC)nc(-c2ccc(F)cc2)c1-c1ccnc(NC(=O)CCC2CCCC2)c1 |
| 114 nM | COCCn1c(SC)nc(-c2ccc(F)cc2)c1-c1ccnc(NC(=O)C[C@@H](C)c2ccccc2)c1 |
| 1760 nM | COCCn1c(SC)nc(-c2ccc(F)cc2)c1-c1ccnc(NC(=O)C(C)(C)C)c1 |
| 35 nM | COCCn1c(SC)nc(-c2ccc(F)cc2)c1-c1ccnc(NCC(C)c2ccccc2)c1 (stereo not given) |
| 116 nM | COCCn1c(SC)nc(-c2ccc(F)cc2)c1-c1ccnc(NC(=O)C2CCC2)c1 |
| 115 nM | COCCn1c(SC)nc(-c2ccc(F)cc2)c1-c1ccnc(NC(=O)CCCCc2ccccc2)c1 |
| 103 nM | COCCn1c(SC)nc(-c2ccc(F)cc2)c1-c1ccnc(NC(=O)CC(C)C)c1 |
| 193 nM | COCCn1c(SC)nc(-c2ccc(F)cc2)c1-c1ccnc(NC(=O)/C=C/c2ccccc2)c1 |
| 254 nM | COCCn1c(SC)nc(-c2ccc(F)cc2)c1-c1ccnc(NC(=O)CCc2ccc(SC)cc2)c1 |
| 115 nM | COCCn1c(SC)nc(-c2ccc(F)cc2)c1-c1ccnc(NC(=O)CCCc2ccccc2)c1 |
| 216 nM | COCCn1c(SC)nc(-c2ccc(F)cc2)c1-c1ccnc(NC(=O)CCc2ccc(OC)c(OC)c2)c1 |

| IC50 | SMILES |
| --- | --- |
| 103 nM | COCCn1c(SC)nc(-c2ccc(F)cc2)c1-c1ccnc(NC(=O)C(C)Oc2ccccc2)c1 (stereo not given) |
| 123 nM | COCCn1c(SC)nc(-c2ccc(F)cc2)c1-c1ccnc(NC(=O)CCc2cc(OC)c(OC)c(OC)c2)c1 |
| 386 nM | COCCn1c(SC)nc(-c2ccc(F)cc2)c1-c1ccnc(NC(=O)Cc2ccccc2)c1 |
| 178 nM | COCCn1c(SC)nc(-c2ccc(F)cc2)c1-c1ccnc(NC(=O)CCc2ccc(OC)cc2OC)c1 |
| 220 nM | COCCn1c(SC)nc(-c2ccc(F)cc2)c1-c1ccnc(NC(=O)CCc2ccc(S(C)(=O)=O)cc2)c1 |
| 156 nM | COCCn1c(SC)nc(-c2ccc(F)cc2)c1-c1ccnc(NC(=O)C2CCCCC2)c1 |
| 179 nM | COCCn1c(SC)nc(-c2ccc(F)cc2)c1-c1ccnc(NC(=O)CCC(C)C)c1 |
| 108 nM | COCCn1c(SC)nc(-c2ccc(F)cc2)c1-c1ccnc(NC(C)=O)c1 |
| 60 nM | COCCn1c(SC)nc(-c2ccc(F)cc2)c1-c1ccnc(NC(=O)CC(C)c2ccccc2)c1 (stereo not given) |
| 1420 nM | COCCn1c(SC)nc(-c2ccc(F)cc2)c1-c1ccnc(N)c1 |
| 2450 nM | COCCn1c(SC)nc(-c2ccc(F)cc2)c1-c1ccnc(NC(=O)CCc2ccc(C(C)(C)C)cc2)c1 |
| 196 nM | COCCn1c(SC)nc(-c2ccc(F)cc2)c1-c1ccnc(NC(=O)CCC2CCCCC2)c1 |
| 244 nM | COCCn1c(SC)nc(-c2ccc(F)cc2)c1-c1ccnc(NC(=O)c2ccccc2)c1 |
| 195 nM | COCCn1c(SC)nc(-c2ccc(F)cc2)c1-c1ccnc(NC(=O)C(Oc2ccccc2)C(C)C)c1 (stereo not given) |
| 213 nM | COCCn1c(SC)nc(-c2ccc(F)cc2)c1-c1ccnc(NC(=O)Cc2ccc(OC)cc2)c1 |
| 458 nM | COCCn1c(SC)nc(-c2ccc(F)cc2)c1-c1ccnc(NC(=O)C2CCCC2)c1 |
| 91 nM | COCCn1c(SC)nc(-c2ccc(F)cc2)c1-c1ccnc(NC(=O)CCc2cccc(OC)c2OC)c1 |
| 77 nM | COCCn1c(SC)nc(-c2ccc(F)cc2)c1-c1ccnc(NC(=O)C(C)Cc2ccccc2)c1 (stereo not given) |
| 48 nM | COCCn1c(SC)nc(-c2ccc(F)cc2)c1-c1ccnc(NC(=O)CCc2ccc(OC)cc2)c1 |
| 93 nM | COCCn1c(SC)nc(-c2ccc(F)cc2)c1-c1ccnc(NC(=O)CCc2ccccc2OC)c1 |
| 392 nM | COCCn1c(SC)nc(-c2ccc(F)cc2)c1-c1ccnc(NC(=O)c2ccc(OC)cc2)c1 |
| 63 nM | COCCn1c(SC)nc(-c2ccc(F)cc2)c1-c1ccnc(NC(=O)CCc2ccccc2)c1 |
